In article PMC7321301, “Characteristics of New Peptides GQLGEHGGAGMG, GEHGGAGMGGGQFQPV, EQGFLPGPEESGR, RLARAGLAQ, YGNPVGGVGH, and GNPVGGVGHGTTGT as Inhibitors of Enzymes Involved in Metabolic Syndrome and Antimicrobial Potential” (Molecules, 2020):
Read-outs that look alike come from different tables or passages of the source. No end group written: not given here.

How the values were obtained:
LOX = LOX (Glycine max, UniProt P08170); assay type: biochemical; details: read-out: IC50 LOX
Procedure: (§1) For all inhibitory activity, IC50 was calculated. The IC50 value defined as the concentration of the extract inhibiting 50% of the enzyme activity was determined by measuring the enzyme inhibitory activity and peptide contents in each sample. The IC50 value was calculated from the plotted graph of the inhibition activity for the five different peptide concentrations.
The LOX inhibitory assay was carried out with the method described by Szymanowska et al.. A solution of pure linoleic acid was used as a substrate. First, 157.2 µl of pure linoleic acid was mixed with 157.2 µL of Tween-20 and 10 mL of deionized water. The substrate was clarified with 1 mL of 1 M NaOH and M/15 phosphate buffer pH = 7.0 was added to the volume of 200 mL. The enzymatic reaction mixture contained 297 µL of M/15 phosphate buffer pH = 7, 2 µl of the substrate solution, and 1 µL of the enzyme solution. A mixture of 298 µl of phosphate buffer (pH 7.0) and 2 µL of the substrate solution was used to calibrate the spectrophotometer. Changes in absorbance at 234 nm were measured using BioTek Microplate Readers.
(§2) Substrate solutions (5.0, 10.0, 15.0, and 20.0 mM) were prepared and used to determine the Michaelis constant (Km), the inhibition constant (Ki), and the maximum velocity (Vmax) of enzymes. The kinetic parameters were evaluated by Lineweaver–Burk’s method. The reaction conditions were the same as in the enzyme inhibitory activity assay.

[1] = biological target: angiotensin converting enzyme (ACE) (Homo sapiens, UniProt P12821); experiment: ACE inhibitor activity (HHL substrate, OPA) and kinetics; assay type: biochemical; details: mean ± SD, triplicate; nd = not detected
Procedure: as §1
The angiotensin converting enzyme was prepared according to the method described by Karaś et al.. For ACE inhibitor activity, 5 μL of ACE was mixed with 5 μL of the samples and, after preincubation at 37 °C for 5 min, 5 μL of a 5 mM N-Hippuryl-L-histidyl-L-leucine (HHL) solution was added. The reaction was carried out at 37 °C for 60 min. Next, 0.1 M borate buffer with 0.2 M NaOH and 70 μL of an o-phthaldialdehyde OPA solution (20 mg/mL OPA in methanol) were added. The absorbance at 390 nm was measured using BioTek Microplate Readers ([…]).
as §2

angiotensin converting enzyme (ACE), sequence (P12821 30-1306, species assumed): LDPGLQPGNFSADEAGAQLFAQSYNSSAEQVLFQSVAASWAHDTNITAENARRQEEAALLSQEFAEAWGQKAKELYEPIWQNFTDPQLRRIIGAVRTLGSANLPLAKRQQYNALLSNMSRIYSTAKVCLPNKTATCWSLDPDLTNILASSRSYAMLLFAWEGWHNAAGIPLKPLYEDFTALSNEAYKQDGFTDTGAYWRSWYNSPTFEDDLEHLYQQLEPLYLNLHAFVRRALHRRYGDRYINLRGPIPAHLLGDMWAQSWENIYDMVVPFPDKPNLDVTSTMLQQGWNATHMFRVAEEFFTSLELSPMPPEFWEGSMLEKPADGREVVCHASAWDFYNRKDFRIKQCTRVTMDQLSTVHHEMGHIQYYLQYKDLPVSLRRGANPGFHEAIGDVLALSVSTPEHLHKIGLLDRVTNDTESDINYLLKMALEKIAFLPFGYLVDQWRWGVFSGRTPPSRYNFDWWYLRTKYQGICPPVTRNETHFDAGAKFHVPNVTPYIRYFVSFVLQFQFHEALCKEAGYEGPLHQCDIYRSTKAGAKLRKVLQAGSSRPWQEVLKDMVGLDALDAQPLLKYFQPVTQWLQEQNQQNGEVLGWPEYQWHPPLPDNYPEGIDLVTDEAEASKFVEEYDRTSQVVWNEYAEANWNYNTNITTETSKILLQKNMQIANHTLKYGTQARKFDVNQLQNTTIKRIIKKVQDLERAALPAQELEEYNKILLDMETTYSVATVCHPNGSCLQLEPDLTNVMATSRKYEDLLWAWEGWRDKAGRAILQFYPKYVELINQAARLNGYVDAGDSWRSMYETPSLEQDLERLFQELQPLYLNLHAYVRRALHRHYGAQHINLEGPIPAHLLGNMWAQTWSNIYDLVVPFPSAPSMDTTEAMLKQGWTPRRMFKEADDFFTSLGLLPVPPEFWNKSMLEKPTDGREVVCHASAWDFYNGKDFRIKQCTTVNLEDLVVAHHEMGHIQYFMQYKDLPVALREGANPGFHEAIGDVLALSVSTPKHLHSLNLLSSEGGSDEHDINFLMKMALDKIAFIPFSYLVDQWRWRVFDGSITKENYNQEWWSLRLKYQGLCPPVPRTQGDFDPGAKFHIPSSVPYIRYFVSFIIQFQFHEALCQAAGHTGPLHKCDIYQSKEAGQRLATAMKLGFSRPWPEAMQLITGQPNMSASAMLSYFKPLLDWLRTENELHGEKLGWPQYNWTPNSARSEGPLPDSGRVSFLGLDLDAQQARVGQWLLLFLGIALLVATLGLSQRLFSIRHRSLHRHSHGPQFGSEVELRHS
LOX, sequence (P08170 whole entry): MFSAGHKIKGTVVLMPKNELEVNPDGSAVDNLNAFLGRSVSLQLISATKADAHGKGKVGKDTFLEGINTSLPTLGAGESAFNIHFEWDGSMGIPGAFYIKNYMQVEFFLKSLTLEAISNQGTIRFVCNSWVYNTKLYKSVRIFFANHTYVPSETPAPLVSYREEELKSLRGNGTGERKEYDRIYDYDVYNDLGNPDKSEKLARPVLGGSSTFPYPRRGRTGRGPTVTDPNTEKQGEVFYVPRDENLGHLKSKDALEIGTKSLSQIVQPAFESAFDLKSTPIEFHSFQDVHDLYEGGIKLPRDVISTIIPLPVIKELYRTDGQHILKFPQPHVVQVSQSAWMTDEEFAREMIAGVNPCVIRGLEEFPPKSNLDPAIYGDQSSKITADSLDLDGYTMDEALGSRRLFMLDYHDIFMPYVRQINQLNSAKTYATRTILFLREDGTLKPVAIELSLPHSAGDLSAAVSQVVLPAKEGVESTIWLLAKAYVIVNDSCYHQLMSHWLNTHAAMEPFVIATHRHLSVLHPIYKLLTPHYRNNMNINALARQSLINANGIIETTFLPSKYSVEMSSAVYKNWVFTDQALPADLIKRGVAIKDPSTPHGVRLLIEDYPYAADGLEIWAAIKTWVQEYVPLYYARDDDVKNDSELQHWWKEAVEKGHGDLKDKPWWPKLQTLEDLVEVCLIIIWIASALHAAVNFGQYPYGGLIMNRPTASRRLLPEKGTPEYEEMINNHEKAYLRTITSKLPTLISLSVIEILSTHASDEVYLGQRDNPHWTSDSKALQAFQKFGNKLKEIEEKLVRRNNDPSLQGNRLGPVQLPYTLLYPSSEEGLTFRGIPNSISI

EQGFLPGPEESGR [ER-13, EQGFLPGPEESGR]
IC50 (LOX): 60.1 µM
IC50 [1]: 457 µM

GEHGGAGMGGGQFQPV [GV-16, GEHGGAGMGGGQFQPV]
IC50 (LOX): 68.5 µM
IC50 [1]: 490 µM

GNPVGGVGHGTTGT [GT-14, GNPVGGVGHGTTGT]
IC50 (LOX): 153 µM
IC50 [1]: 434 µM

GQLGEHGGAGMG [GG-12, GQLGEHGGAGMG]
IC50 (LOX): 131 µM
IC50 [1]: 525 µM

RLARAGLAQ [RQ-9, RLARAGLAQ]
IC50 (LOX; mean ± SD, triplicate): 205 µM
IC50 ACE [1]: no inhibitory effect

YGNPVGGVGH [YH-10, YGNPVGGVGH]
IC50 (LOX): 127 µM
IC50 [1]: 522 µM
